Assay results taken from patent US9315494B2, “Alkyl-amide-substituted pyridyl compounds useful as modulators of IL-12, IL-23 and/or IFNα responses” (Bristol-Myers Squibb Company, priority 2012, dated 2016).

Key:
[1] = tested on: IFNα-stimulated STAT-dependent luciferase reporter in Kit225 T cells; test: Kit225 T cell assay, IFNα stimulated STAT-dependent luciferase reporter; type: cell-based, human; conditions: Kit225 T cells, 200 U/mL human recombinant IFNα, 5-6 hours, luciferase; read-out: IFNα (Kit225 T Cell Inhibition Data)
How it was run: (§1)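 Kit225 T cells carrying a stably integrated STAT-luciferase reporter, in RPMI with 10% heat-inactivated FBS, were stimulated with 20 ng/mL IL-23 or 200 U/mL IFNα for 5-6 h. Readout was luminescence from the luciferase reporter.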

[2] = tested on: IL-23-stimulated STAT-dependent luciferase reporter in Kit225 T cells; test: Kit225 T cell assay, IL-23 stimulated STAT-dependent luciferase reporter; type: cell-based, human; conditions: Kit225 T cells, 20 ng/mL human recombinant IL-23, 5-6 hours, luciferase; read-out: IL23 (Kit225 T Cell Inhibition Data)
How it was run: as §1

[3] = biological target: T1, recombinantly expressed His-tagged protein corresponding to amino acids 575-869 of human Tyk2 (Homo sapiens, UniProt P29597); test: Probe displacement assay (scintillation proximity, [3H] probe); type: binding; conditions: 2.5 nM Tyk2 (575-869), 40 nM radiolabeled probe, 30 minutes at room temperature
T1 construct: corresponding to amino acids 575-869 of human Tyk2; made in house
T1 sequence (P29597 575-869): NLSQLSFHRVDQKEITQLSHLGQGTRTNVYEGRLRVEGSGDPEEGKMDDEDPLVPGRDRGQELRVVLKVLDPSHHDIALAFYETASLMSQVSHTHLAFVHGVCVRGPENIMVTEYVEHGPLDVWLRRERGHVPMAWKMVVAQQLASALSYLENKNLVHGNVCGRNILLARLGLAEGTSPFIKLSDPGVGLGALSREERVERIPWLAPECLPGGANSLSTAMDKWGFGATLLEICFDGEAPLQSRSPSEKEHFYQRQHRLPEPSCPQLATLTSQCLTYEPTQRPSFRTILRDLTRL
Experimental: The probe displacement assay is conducted as follows: In a […], test compounds along with recombinantly expressed His-tagged protein corresponding to amino acids 575-869 of human Tyk2 (sequence shown below) at 2.5 nM, 40 nM ((R)-N-(1-(3-(8-methyl-5-(methylamino)-8H-imidazo[4,5-d]thiazolo[5,4-b]pyridin-2-yl)phenyl)ethyl)-2-([^3H]methylsulfonyl)benzamide) (preparation described below) and 80 μg/mL Copper His-Tag scintillation proximity assay beads (Perkin Elmer, Catalog #RPNQ0095) in 50 mM HEPES, pH 7.5, containing 100 μg/mL bovine serum albumin and 5% DMSO were incubated for 30 minutes at room temperature. The amount of radiolabeled probe (preparation described below) bound to Tyk2 was then quantified by scintillation counting, and the inhibition by the test compound calculated by comparison to wells either with no inhibitor (0% inhibition) or without Tyk2 (100% inhibition).
Protein Sequence of recombinant Hig-tagged Tyk2 (575-869):
The preparation of radiolabeled probe, (R)-N-(1-(3-(8-methyl-5-(methylamino)-8H-imidazo[4,5-d]thiazolo[5,4-b]pyridin-2-yl)phenyl)ethyl)-2-([^3H]methylsulfonyl)benzamide, was performed as described below: […]

Row | SMILES | IC50 [1] | IC50 [2] | EC50 [3]
1 | CNC(=O)c1cnc(Nc2ccc3ccccc3n2)cc1N[C@@H]1CCCC[C@@H]1C(N)=O [Example 286] | 1980 nM | 4220 nM | 106 nM
2 | CNC(=O)c1cnc(Nc2ccc(N3CCOCC3)cn2)cc1Nc1ccccc1SC [Example 226] | 140 nM | 151 nM | 20.1 nM
3 | CNC(=O)c1cnc(Nc2ccc(F)cn2)cc1Nc1ccccc1CCO [Example 66] | 3170 nM | 1770 nM | 14.8 nM
4 | CNC(=O)c1cnc(Nc2ccc3ccccc3n2)cc1Nc1ccccc1S(C)(=O)=O [Example 2] | 30 nM | 57.4 nM | 13.2 nM
5 | CNC(=O)c1cnc(Nc2cc(C#N)ccn2)cc1Nc1cc(F)cc(F)c1OC [Example 134] | 130 nM | 314 nM | 9.9 nM
6 | CNC(=O)c1cnc(Nc2ccc(F)cn2)cc1Nc1cc(F)cc(F)c1OC [Example 205] | 180 nM | 372 nM | 25.1 nM
7 | CNC(=O)c1cnc(Nc2ccc(Cl)cn2)cc1Nc1ccccc1C(N)=O [Example 80] | 460 nM | 320 nM | 4.4 nM
8 | CNC(=O)c1cnc(Nc2cc(C)c(F)cn2)cc1Nc1cccc(-c2cnn(C)c2)c1OC [Example 396] | 60 nM | 110 nM | 6.5 nM
9 | CNC(=O)c1cnc(Nc2cc(C)c(F)cn2)cc1Nc1cccc(C(=O)NCCF)c1OC [Example 356] | 80 nM | 120 nM | 2.6 nM
10 | CNC(=O)c1cnc(Nc2cccc(OC)n2)cc1Nc1ccccc1C(N)=O [Example 73] | 290 nM | 506 nM | 12 nM
11 | CNC(=O)c1cnc(Nc2ccc(F)cn2)cc1Nc1cccc(C(N)=O)c1OC [Example 315, 4-((3-carbamoyl-2-methoxyphenyl)amino)-6-((5-fluoropyridin-2-yl)amino)-N-methylnicotinamide] | 80 nM | 90 nM | 5 nM
12 | CNC(=O)c1cnc(Nc2ccc(F)cn2)cc1Nc1ccc(-c2ccccc2)cc1 [Example 194] | 8660 nM | 3220 nM | 349 nM
13 | CNC(=O)c1cnc(Nc2ccc3ccccc3n2)cc1NC1CCCC1C(N)=O (stereo not drawn) [Example 289] | 7300 nM | 12500 nM | 495 nM
14 | CNC(=O)c1cnc(Nc2ccc(S(C)(=O)=O)cn2)cc1Nc1ccccc1S(C)(=O)=O [Example 61] | 1030 nM | 3530 nM | 16.4 nM
15 | CNC(=O)c1cnc(Nc2cc(C)c(F)cn2)cc1Nc1cccc(-c2nc[nH]n2)c1OC(F)F [Example 387] | 120 nM | 280 nM | 4.6 nM
16 | CNC(=O)c1cnc(Nc2cc(CO)ccn2)cc1Nc1ccccc1C(N)=O [Example 94] | 3430 nM | 3560 nM | 9.5 nM
17 | CNC(=O)c1cnc(Nc2cc(C)nc(C)n2)cc1Nc1cccc(-c2cnn(C)c2)c1OC [Example 395] | 20 nM | 30 nM | 3.1 nM
18 | CNC(=O)c1cnc(Nc2ccc(F)cn2)cc1Nc1cccc2ccccc12 [Example 188] | 6470 nM | 4300 nM | 557 nM
19 | CNC(=O)c1ccc(Nc2cc(Nc3ccc(F)cn3)ncc2C(=O)NC)c(OC)c1 [Example 237] | 460 nM | 470 nM | 29.1 nM
20 | CNC(=O)c1cnc(Nc2ccc(C)cn2)cc1Nc1cc(F)cc(F)c1OC [Example 128] | 140 nM | 335 nM | 21.3 nM
21 | CNC(=O)c1cnc(Nc2cc(C(=O)NCCOC)ccn2)cc1Nc1cc(F)cc(F)c1OC [Example 266] | 160 nM | 312 nM | 6.5 nM
22 | CNC(=O)c1cnc(Nc2ccc(N3CCOCC3)cn2)cc1Nc1ccccc1CCO [Example 224] | 4600 nM | 5610 nM | 597 nM

Further molecules by falling IC50 [1], results first:

Row | IC50 [1] | IC50 [2] | EC50 [3] | SMILES
23 | 9970 nM | 9680 nM | 436 nM | CCc1cccc(Nc2cc(Nc3ccc(Cl)cc3OC)c(C(=O)NC)cn2)n1 [Example 125]
24 | 6650 nM | 10700 nM | 779 nM | CNC(=O)c1cnc(Nc2cccc(-n3ccccc3=O)n2)cc1Nc1ccc(F)cc1OC [Example 165]
25 | 2360 nM | 4250 nM | 6.3 nM | CNC(=O)c1cnc(Nc2ccc(F)cn2)cc1Nc1ccc(C(=O)NCCO)cc1OC [Example 238]
26 | 2090 nM | 4060 nM | 182 nM | CNC(=O)c1cnc(Nc2ccc(F)cn2)cc1Nc1ccccc1S(=O)(=O)N(C)C [Example 302]
27 | 1480 nM | 3310 nM | 291 nM | CNC(=O)c1cnc(Nc2ccc(N3CCOCC3)cn2)cc1Nc1ccccc1C [Example 217]
28 | 1290 nM | 898 nM | 84.5 nM | CNC(=O)c1cnc(Nc2ccc(F)cn2)cc1Nc1ccccc1[S+](C)[O-] (stereo not drawn) [Example 62]
29 | 230 nM | 310 nM | 14 nM | CCC(CC)CNC(=O)c1cccc(Nc2cc(Nc3cc(C)c(F)cn3)ncc2C(=O)NC)c1OC [Example 334]
30 | 230 nM | 517 nM | 46.1 nM | CNC(=O)c1cnc(Nc2cc(Cl)ccn2)cc1Nc1cc(F)cc(F)c1OC [Example 144]
31 | 210 nM | 460 nM | 76.4 nM | CNC(=O)c1cnc(Nc2cc(C)c(F)cn2)cc1Nc1cccc(C(=O)NCC2CCCCC2)c1OC [Example 325]
32 | 160 nM | 257 nM | 3.8 nM | CNC(=O)c1cnc(Nc2ccc3ccccc3n2)cc1Nc1ccccc1C(N)=O [Example 87]
33 | 140 nM | 144 nM | 36.7 nM | CNC(=O)c1cnc(Nc2ccc(N3CCOCC3)cn2)cc1Nc1ccccc1OC(F)F [Example 228]
34 | 40 nM | 70 nM | 4.7 nM | CNC(=O)c1cnc(Nc2cc(C)n(C)n2)cc1Nc1cccc(-c2nnc[nH]2)c1OC [Example 363]
35 | 30 nM | 30 nM | 10.5 nM | CNC(=O)c1cnc(Nc2cc(C)c(F)cn2)cc1Nc1cccc(C(=O)NCc2nccs2)c1OC [Example 345]
36 | 10 nM | 100 nM | 15.3 nM | CNC(=O)c1cnc(Nc2cc(C)c(F)cn2)cc1Nc1cccc(C(=O)NCc2ccccn2)c1OC [Example 327]
37 | 5.07 nM | 10 nM | 4.6 nM | CCn1cnc(-c2cccc(Nc3cc(Nc4cc(C)nc(C)n4)ncc3C(=O)NC)c2OC)n1 [Example 382]
